IC50 data for five compounds are collected here from patent US20220220152A1, “BIVALENT ANTAGONISTS OF INHIBITORS OF APOPTOSIS PROTEINS” (Hepagene Therapeutics (HK) Limited, priority 2019, published 2022).

One experiment deals with T1, XIAP-BIR3 (Homo sapiens, UniProt P98170).
T1 construct: XIAP-BIR3; purchased Reaction Biology APT-11-374
In words: XIAP-BIR3 fluorescence polarization binding assay. The following applies: FP, probe AbuRPFK-5FAM (SM5F) 5 nM, XIAP-BIR3 40 nM, 60 min at 25° C. In outline: (§1)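 Fluorescence polarization competition using 5-carboxyfluorescein-labelled peptide probe AbuRPFK-5FAM; protein and compound preincubated 15 min, probe added, then 60 min at 25° C.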

Another experiment deals with T2, cIAP1-BIR3 (Homo sapiens, UniProt Q13490).
T2 construct: cIAP1-BIR3; purchased Reaction Biology APT-11-370
In words: cIAP1-BIR3 fluorescence polarization binding assay. Conditions: FP, probe AbuRPFK-5FAM (SM5F) 5 nM, cIAP1-BIR3 15 nM, 60 min at 25° C. In outline: as §1

In a further experiment the target is T3, cIAP2-BIR3 (Homo sapiens, UniProt Q13489).
T3 construct: cIAP2-BIR3; purchased Reaction Biology APT-11-372
In words: cIAP2-BIR3 fluorescence polarization binding assay. The following applies: FP, probe AbuRPFK-5FAM (SM5F) 5 nM, cIAP2-BIR3 80 nM, 60 min at 25° C. In a few lines: as §1

T2 sequence (Q13490 253-363 limits assumed): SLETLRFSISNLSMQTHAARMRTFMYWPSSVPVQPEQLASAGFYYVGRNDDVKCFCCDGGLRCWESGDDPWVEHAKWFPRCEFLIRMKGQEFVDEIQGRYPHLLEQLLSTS
T3 sequence (Q13489 238-349 limits assumed): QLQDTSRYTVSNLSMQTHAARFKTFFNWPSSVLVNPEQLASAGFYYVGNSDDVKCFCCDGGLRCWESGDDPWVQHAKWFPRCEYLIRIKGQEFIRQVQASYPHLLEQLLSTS
T1 sequence (P98170 241-356 limits assumed): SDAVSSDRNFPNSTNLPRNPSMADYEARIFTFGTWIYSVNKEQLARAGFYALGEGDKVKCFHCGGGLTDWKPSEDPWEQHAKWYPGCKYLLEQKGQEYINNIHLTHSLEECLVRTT

For the compound `CN[C@@H](C)C(=O)N[C@H](C(=O)N1CCC[C@H]1C(=O)N[C@@H]1CCCc2ccc(N3CCN(c4ccc5c(c4)[C@H](NC(=O)[C@@H]4CCCN4C(=O)[C@@H](NC(=O)[C@H](C)NC)C4CCCCC4)CCC5)CC3)cc21)C1CCCCC1` [VIII-A, (2S)-1-[(2S)-2-cyclohexyl-2-[(2S)-2-(methylamino)propanamido]acetyl]-N-[(1R)-7-[4-[(8R)-8-[(2S)-1-[(2S)-2-cyclohexyl-2-[(2S)-2-(methylamino)propanamido]acetyl]pyrrolidine-2-amido]-5,6,7,8-tetrahydronaphthalen-2-yl]piperazin-1-yl]-1,2,3,4-tetrahydronaphthalen-1-yl]pyrrolidine-2-carboxamide], the figures for the IC50 at XIAP-BIR3, at cIAP1-BIR3 and at cIAP2-BIR3 were more than 1000 nM, 10 to 100 nM and 100 to 1000 nM, respectively.
As to `CN[C@@H](C)C(=O)N[C@H](C(=O)N1CCC[C@H]1C(=O)N[C@@H]1CCCc2c(-c3ccc4cc(-c5cccc6c5CCC[C@H]6NC(=O)[C@@H]5CCCN5C(=O)[C@@H](NC(=O)[C@H](C)NC)C5CCCCC5)ccc4c3)cccc21)C1CCCCC1` [Compound III-B, (2S)-1-[(2S)-2-Cyclohexyl-2-[(2S)-2-(methylamino)propanamido]acetyl]-N-[(1R)-5-{6-[(5R)-5-[(2S)-1-[(2S)-2-cyclohexyl-2-[(2S)-2-(methylamino)propanamido]acetyl]pyrrolidine-2-amido]-5,6,7,8-tetrahydronaphthalen-1-yl]naphthalen-2-yl}-1,2,3,4-tetrahydmnaphthalen-1-yl]pyrrolidine-2-carboxamide], the IC50 at XIAP-BIR3 was 10 to 100 nM; at cIAP1-BIR3, 1 to 10 nM; at cIAP2-BIR3 it was 10 to 100 nM.
Consider `CN[C@@H](C)C(=O)N[C@H](C(=O)N1CCC[C@H]1C(=O)N[C@@H]1CCCc2c(NC(=O)c3cccc4c3CCC[C@H]4NC(=O)[C@@H]3CCCN3C(=O)[C@@H](NC(=O)[C@H](C)NC)C3CCOCC3)cccc21)C1CCOCC1` [Compound VII-B, (2S)-1[(2S)-2-[(2S)-2-(methylamino)propanamido]-2-(oxan-4-yl)acetyl]-N-[(1R)-5-[[(5R)-5-[(2S)-1[(2S)-2-[(2S)-2-(methylamino)propanamido]-2-(oxan-4-yl)acetyl]pyrrolidine-2-amido]-5,6,7,8-tetrahydronaphthalen-1-yl]carbamoyl]-1,2,3,4-tetrahydronaphthalen-1-yl]pyrrolidine-2-carboxamide], for which the half-maximal inhibitory concentration (IC50) at XIAP-BIR3 was 10 to 100 nM; on cIAP1-BIR3 it was 1 to 10 nM; at cIAP2-BIR3 it was 10 to 100 nM.
For `CN[C@@H](C)C(=O)N[C@H](C(=O)N1CCC[C@H]1C(=O)N[C@@H]1CCCc2c(-c3cccc4c3CCC[C@H]4NC(=O)[C@@H]3CCCN3C(=O)[C@@H](NC(=O)[C@H](C)NC)C(C)(C)C)cccc21)C(C)(C)C` [Compound V-J, (2S)-1-[(2S)-3,3-dimethyl-2-[(2S)-2-(methylamino)propanamido]butanoyl]-N-[(5R,5′R)-5′-[(2S)-[(2S)-3,3-dimethyl-2-[(2S)-2-(methylamino)propanamido]butanoyl]pyrolidine-2-amido]-5H,5′ H,6H,6′H,7H,7′H,8H,8′ H-[1,1′-binaphthalen]-5-yl]pyrrolidine-2-carboxamide], the IC50 is 10 to 100 nM on XIAP-BIR3, 1 to 10 nM on cIAP1-BIR3 and 10 to 100 nM at cIAP2-BIR3.
With `CN[C@@H](C)C(=O)N[C@H](C(=O)N1CCC[C@H]1C(=O)N[C@@H]1CCCc2c(-c3ccc(-c4cccc5c4CCC[C@H]5NC(=O)[C@@H]4CCCN4C(=O)[C@@H](NC(=O)[C@H](C)NC)C4CCCCC4)cc3)cccc21)C1CCCCC1` [Compound III, (2S)-1-[(2S)-2-Cyclohexyl-2-[(2S)-2-(methylamino)propanamido]acetyl]-N-[(1R)-5-[4-[(5R)-5-[(2S)-1-[(2S)-2-cyclohexyl-2-[(2S)-2-(methylamino)propanamido]acetyl]pyrrolidine-2-amido]-5,6,7,8-tetrahydronaphthalen-1-yl]phenyl]-1,2,3,4-tetrahydronaphthalen-1-yl]pyrrolidine-2-carboxamide], the IC50 on XIAP-BIR3 is 10 to 100 nM; on cIAP1-BIR3, 1 to 10 nM; at cIAP2-BIR3, 10 to 100 nM.
